Key:
Type in all cases: functional, Mesocricetus auratus
Syrian golden hamster [1] = assay: Antidyslipidemic activity against high fructose high fat diet fed syrian golden hamster assessed as reduction in serum cholesterol at 30 mg/kg, po for 7 days relative to untreated control; set-up: scale not given: the % may be the effect or the level left
Syrian golden hamster [2] = assay: Antidyslipidemic activity against high fructose high fat diet fed syrian golden hamster assessed as reduction in serum triglyceride at 30 mg/kg, po for 7 days relative to untreated control; set-up: scale not given: the % may be the effect or the level left
Syrian golden hamster [3] = assay: Antidyslipidemic activity against high fructose high fat diet fed syrian golden hamster assessed as change in serum HDL-cholesterol at 30 mg/kg, po for 7 days relative to untreated control
Syrian golden hamster [4] = assay: Antidyslipidemic activity against high fructose high fat diet fed syrian golden hamster assessed as reduction in serum LDL-cholesterol at 30 mg/kg, po for 7 days relative to untreated control; set-up: scale not given: the % may be the effect or the level left
Syrian golden hamster [5] = assay: Antidiabetic activity against high fructose high fat diet fed syrian golden hamster assessed as change in fasting blood glucose level at 30 mg/kg, po for 7 days relative to untreated control
Syrian golden hamster [6] = assay: Antidiabetic activity against high fructose high fat diet fed syrian golden hamster assessed as change in serum insulin level at 30 mg/kg, po for 7 days by ELISA relative to untreated control

CCOC(=O)C(C)(C)Oc1ccc(C(=O)/C=C/c2ccc(OC)cc2)cc1
Activity (Syrian golden hamster [1]): 9.3% | Activity (Syrian golden hamster [2]): 31.2% | Activity (Syrian golden hamster [3]): -9.9% | Activity (Syrian golden hamster [4]): 27.4% | Activity (Syrian golden hamster [5]): -16.9% | Activity (Syrian golden hamster [6]): -5.87%

CCOC(=O)C(C)(C)Oc1ccc(C(=O)/C=C/c2cc(Cl)cc(Cl)c2)cc1
Activity (Syrian golden hamster [1]): 16.9% | Activity (Syrian golden hamster [2]): 17.4% | Activity (Syrian golden hamster [3]): 10.1% | Activity (Syrian golden hamster [4]): 16.8% | Activity (Syrian golden hamster [5]): -8.4% | Activity (Syrian golden hamster [6]): -12.1%

CCOC(=O)C(C)(C)Oc1ccc(C(=O)/C=C/c2ccc(C)cc2)cc1
Activity (Syrian golden hamster [1]): 23.4% | Activity (Syrian golden hamster [2]): 22.7% | Activity (Syrian golden hamster [3]): 2.52% | Activity (Syrian golden hamster [4]): 19.8% | Activity (Syrian golden hamster [5]): -12.9% | Activity (Syrian golden hamster [6]): -10.8%

CCOC(=O)C(C)(C)Oc1ccc(/C=C/C(=O)c2ccccc2)cc1
Activity (Syrian golden hamster [1]): 17.8% | Activity (Syrian golden hamster [2]): 25.1% | Activity (Syrian golden hamster [3]): 10.8% | Activity (Syrian golden hamster [4]): 16.8% | Activity (Syrian golden hamster [5]): 8.8% | Activity (Syrian golden hamster [6]): 6.78%

CCOC(=O)C(C)(C)Oc1cccc(/C=C/C(=O)c2ccccc2)c1
Activity (Syrian golden hamster [1]): 11.5% | Activity (Syrian golden hamster [2]): 18.5% | Activity (Syrian golden hamster [3]): 2.1% | Activity (Syrian golden hamster [4]): 15.3% | Activity (Syrian golden hamster [5]): -10.5% | Activity (Syrian golden hamster [6]): -5.89%

CCOC(=O)C(C)(C)Oc1ccc(C(=O)/C=C/c2ccc(F)cc2)cc1
Activity (Syrian golden hamster [1]): 16.8% | Activity (Syrian golden hamster [2]): 22.2% | Activity (Syrian golden hamster [3]): 4.8% | Activity (Syrian golden hamster [4]): 23.2% | Activity (Syrian golden hamster [5]): -18.4% | Activity (Syrian golden hamster [6]): -4.9%
